These results are taken from ChEMBL document CHEMBL4354883, “Design, Synthesis, and Biological Evaluation of HSP90 Inhibitor-SN38 Conjugates for Targeted Drug Accumulation” (J Med Chem, 2020).

SMILES strings stand for the structures. Active and inactive are the calls of the source. The rule behind the calls is not given here.

In series [1] the target is Heat shock protein HSP 90-alpha (Homo sapiens, UniProt P07900). Put plainly: biochemical.
Description: Inhibition of recombinant human full length HSP90 alpha expressed in Escherichia coli cells after 1 hr by fluorescence polarization assay
A short description of series [2]: Half life in mouse plasma at 25 uM by HPLC analysis. The class given is ADME, cell-free.
The nature of series [3]: Half life of compound in PBS buffer at pH 6.0 at 50 uM by HPLC analysis. In kind it is physicochemical.
Series [4] can be described thus: Half life of compound in PBS buffer at pH 7.4 at 50 uM by HPLC analysis. The class given is physicochemical.
Series [5] is described as follows: Half life in human plasma at 25 uM by HPLC analysis. The class given is ADME, cell-free.
The nature of series [6]: Drug uptake in human A549 cells assessed as blue fluorescence at 5 uM after 12 hrs by confocal laser scanning microscopic analysis. The class given is ADME, cell-based. The following applies: a549, 12 h.
A short description of series [7]: Drug uptake in human A549 cells assessed as blue shift in absorption spectrum at 5 uM by UV-visible absorption spectral analysis. The class given is ADME, cell-based. The following applies: a549, 5 µM.
The subject of series [8] is HCT-116. Put plainly: Downregulation of TOP1 expression in human HCT116 cells at 0.04 uM after 24 hrs by Western blot analysis. The class given is functional, cell-based. Background: A western blot detects proteins with antibodies after separation by electrophoresis.
Series [9] relates to HCT-116. Put plainly: Antiproliferative activity against human HCT116 cells assessed as reduction in cell viability after 72 hrs by SRB assay. The class given is functional, cell-based. Conditions: HCT-116, 72 h. For orientation: In SRB staining, fixed cells bind dye roughly in proportion to their protein.
In the next series the test system is MIA PaCa-2. Put plainly: Antiproliferative activity against human MIAPaCa2 cells assessed as reduction in cell viability after 72 hrs by SRB assay. In kind it is functional, cell-based. Conditions: MIA PaCa-2, 72 h.
For series [10], the system named is A549. The series can be described thus: Induction of cell cycle arrest in human A549 cells at 3 to 10 nM after 24 hrs by RNase A/PI-staining based flow cytometric analysis. The class given is functional. (A flow cytometer gives signals particle by particle.)
Series [11] deals with HCT-116. Put plainly: Induction of cell cycle arrest in human HCT116 cells at 3 nM after 24 hrs by RNase A/PI-staining based flow cytometric analysis. In kind it is functional.
In series [12] the test system is A549. The series can be described thus: Downregulation of TOP1 expression in human A549 cells at 0.04 uM after 24 hrs by Western blot analysis. The class given is functional, cell-based.
For the next series, the system named is L02. The series can be described thus: Cytotoxicity agains human HL7702 cells assessed as reduction in cell viability after 72 hrs by SRB assay. In kind it is cell-based. The following applies: L02, 72 h.
The subject of series [13] is A549. The series can be described thus: Antiproliferative activity against human A549 cells assessed as reduction in cell viability after 72 hrs by SRB assay. The class given is functional, cell-based. The following applies: A549, 72 h.
Series [14] can be described thus: Drug uptake in human A549 cells assessed as maximum emission peaks at 430 nm at 5 uM by fluorescence emission spectral analysis. The class given is ADME, cell-based. The following applies: a549, 5 µM.
Series [15] deals with CAPAN-1. Put plainly: Induction of cell cycle arrest in human Capan1 cells at 3 nM after 24 hrs by RNase A/PI-staining based flow cytometric analysis. The class given is functional.
The test system of series [16] is CAPAN-1. The series can be described thus: Antiproliferative activity against human Capan1 cells assessed as reduction in cell viability after 72 hrs by SRB assay. In kind it is functional, cell-based. Conditions: CAPAN-1, 72 h.

In the case of `CC1(C)CC(=O)c2c(C(F)(F)F)nn(-c3ccc(C(N)=O)c(N[C@H]4CC[C@H](OC(=O)CN)CC4)c3)c2C1` [SNX 5422], in [1], the IC50 (usually the concentration at which inhibition is half-maximal) was 38 nM.

As for `CCc1c2c(nc3ccc(O)cc13)-c1cc3c(c(=O)n1C2)COC(=O)[C@@]3(CC)OC(=O)CCNC(=O)CNc1cc(-n2nc(C(F)(F)F)c3c2CC(C)(C)CC3=O)ccc1C(N)=O`, the figures for the half-life at 25 µM in [2] and in series [5] were 17 h and over 24 h, respectively. Besides, the half-life (usually the time in which the quantity being followed falls by half) at 50 µM in series [3] was over 24 h; in series [4], 12 h. This compound returned an IC50 in series [1] of 1700 nM.

As for `CCc1c2c(nc3ccc(O)cc13)-c1cc3c(c(=O)n1C2)COC(=O)[C@]3(O)CC` [7-ETHYL-10-HYDROXYCAMPTOTHECIN], the Drug uptake result in [6], in [7] and in series [14] was “Active” throughout. The inhibition entry with HCT-116 [8] and in the series on A549 [12] was “Active” throughout. For the same compound, the half-maximal inhibitory concentration (IC50) was 4 nM with HCT-116 [9]; 13 nM with MIA PaCa-2; 18 nM with L02; 11 nM with A549 [13]; 8 nM with CAPAN-1 [16]. Further, the outcome in the series on A549 [10], in the series on HCT-116 [11] and in the series with CAPAN-1 [15] was Active.

`CCc1c2c(nc3ccc(O)cc13)-c1cc3c(c(=O)n1C2)COC(=O)[C@@]3(CC)OC(=O)CNC(=O)CNc1cc(-n2nc(C(F)(F)F)c3c2CC(C)(C)CC3=O)ccc1C(N)=O`: the half-life at 25 µM is 10 h in [2] and 13 h in series [5]. Besides, the half-life at 50 µM in series [3] is over 24 h; in series [4], 7 h. For the same compound, the IC50 in series [1] was 1510 nM.
